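Five compound concentrations were applied to cells in 96-well plates for 48 hours; endpoints were derived by simple linear interpolation of the resulting dose-response curve. TGI denotes the concentration required for complete inhibition of growth.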
Key:
Experiment in all cases: NCI anticancer screen, dose series, 48 h
NCI-H23 lung = tested on: NCI-H23 lung
786-0 renal = tested on: 786-0 renal
K-562 leukemia = tested on: K-562 leukemia
SK-MEL-28 melanoma = tested on: SK-MEL-28 melanoma
SK-OV-3 ovarian = tested on: SK-OV-3 ovarian
SR leukemia = tested on: SR leukemia
UACC-62 melanoma = tested on: UACC-62 melanoma
DU-145 prostate = tested on: DU-145 prostate
SF-539 CNS = tested on: SF-539 CNS
RPMI-8226 leukemia = tested on: RPMI-8226 leukemia
SK-MEL-5 melanoma = tested on: SK-MEL-5 melanoma
SK-MEL-2 melanoma = tested on: SK-MEL-2 melanoma
MCF7 breast = tested on: MCF7 breast
MALME-3M melanoma = tested on: MALME-3M melanoma
OVCAR-5 ovarian = tested on: OVCAR-5 ovarian
SNB-75 CNS = tested on: SNB-75 CNS
SF-295 CNS = tested on: SF-295 CNS
CAKI-1 renal = tested on: CAKI-1 renal
MDA-MB-231 breast = tested on: MDA-MB-231 breast
SF-268 CNS = tested on: SF-268 CNS
UO-31 renal = tested on: UO-31 renal
HL-60(TB) leukemia = tested on: HL-60(TB) leukemia
OVCAR-4 ovarian = tested on: OVCAR-4 ovarian
MDA-MB-435 = tested on: MDA-MB-435
KM12 colon = tested on: KM12 colon
ACHN renal = tested on: ACHN renal
SNB-19 CNS = tested on: SNB-19 CNS
HS 578T breast = tested on: HS 578T breast
COLO 205 colon = tested on: COLO 205 colon
NCI/ADR-RES ovarian = tested on: NCI/ADR-RES ovarian
M14 melanoma = tested on: M14 melanoma
SN12C renal = tested on: SN12C renal
LOX IMVI melanoma = tested on: LOX IMVI melanoma
PC-3 prostate = tested on: PC-3 prostate
A498 renal = tested on: A498 renal
EKVX NSCLC = tested on: EKVX NSCLC
UACC-257 melanoma = tested on: UACC-257 melanoma
TK-10 renal = tested on: TK-10 renal
HCC-2998 colon = tested on: HCC-2998 colon
OVCAR-3 ovarian = tested on: OVCAR-3 ovarian
HT29 colon = tested on: HT29 colon
HOP-62 NSCLC = tested on: HOP-62 NSCLC
RXF 393 renal = tested on: RXF 393 renal
HCT-15 colon = tested on: HCT-15 colon
MOLT-4 leukemia = tested on: MOLT-4 leukemia
U251 CNS = tested on: U251 CNS
NCI-H460 lung = tested on: NCI-H460 lung
IGROV1 ovarian = tested on: IGROV1 ovarian
SW-620 colon = tested on: SW-620 colon
BT-549 breast = tested on: BT-549 breast
MDA-N = tested on: MDA-N
HCT-116 colon = tested on: HCT-116 colon
OVCAR-8 ovarian = tested on: OVCAR-8 ovarian
T-47D breast = tested on: T-47D breast
NCI-H522 lung = tested on: NCI-H522 lung
A549 NSCLC = tested on: A549 NSCLC
NCI-H226 lung = tested on: NCI-H226 lung
CCRF-CEM leukemia = tested on: CCRF-CEM leukemia
HOP-92 NSCLC = tested on: HOP-92 NSCLC

With `CCOC(=O)c1nnc2c(C(=O)OCC)c3ccccc3n2c1N` the TGI (NCI-H23 lung) was > 100 µM, the TGI (786-0 renal) was > 100 µM and the TGI (K-562 leukemia) was > 100 µM. For the same compound, the TGI (SK-MEL-28 melanoma) was > 100 µM, the TGI (SK-OV-3 ovarian) was 91.8 µM and the TGI (SR leukemia) was > 100 µM. The TGI (UACC-62 melanoma) was 9.25 µM, the TGI (DU-145 prostate) was > 100 µM and the TGI (SF-539 CNS) was > 100 µM. The TGI (RPMI-8226 leukemia) was 6.39 µM, the TGI (SK-MEL-5 melanoma) was 51.8 µM and the TGI (SK-MEL-2 melanoma) was > 100 µM. For the same compound, the TGI (MCF7 breast) was > 100 µM, the TGI (MALME-3M melanoma) was 7.57 µM and the TGI (OVCAR-5 ovarian) was > 100 µM. For the same compound, the TGI (SNB-75 CNS) was 67.3 µM, the TGI (SF-295 CNS) was > 100 µM and the TGI (CAKI-1 renal) was > 100 µM. The TGI (MDA-MB-231 breast) was 87.8 µM, the TGI (SF-268 CNS) was > 100 µM and the TGI (UO-31 renal) was > 100 µM. The TGI (HL-60(TB) leukemia) was 5.52 µM, the TGI (OVCAR-4 ovarian) was > 100 µM and the TGI (MDA-MB-435) was > 100 µM. For the same compound, the TGI (KM12 colon) was 66.8 µM, the TGI (ACHN renal) was > 100 µM and the TGI (SNB-19 CNS) was > 100 µM. For the same compound, the TGI (HS 578T breast) was > 100 µM, the TGI (COLO 205 colon) was 49.6 µM and the TGI (NCI/ADR-RES ovarian) was 43.6 µM. The TGI (M14 melanoma) was > 100 µM, the TGI (SN12C renal) was 81.6 µM and the TGI (LOX IMVI melanoma) was > 100 µM. For the same compound, the TGI (PC-3 prostate) was > 100 µM, the TGI (A498 renal) was 60.8 µM and the TGI (EKVX NSCLC) was > 100 µM. The TGI (UACC-257 melanoma) was 11.1 µM, the TGI (TK-10 renal) was > 100 µM and the TGI (HCC-2998 colon) was > 100 µM. For the same compound, the TGI (OVCAR-3 ovarian) was > 100 µM, the TGI (HT29 colon) was > 100 µM and the TGI (HOP-62 NSCLC) was > 100 µM. For the same compound, the TGI (RXF 393 renal) was > 100 µM, the TGI (HCT-15 colon) was > 100 µM and the TGI (MOLT-4 leukemia) was > 100 µM. The TGI (U251 CNS) was > 100 µM, the TGI (NCI-H460 lung) was > 100 µM and the TGI (IGROV1 ovarian) was 38.2 µM. The TGI (SW-620 colon) was > 100 µM, the TGI (BT-549 breast) was > 100 µM and the TGI (MDA-N) was > 100 µM. The TGI (HCT-116 colon) was > 100 µM, the TGI (OVCAR-8 ovarian) was > 100 µM and the TGI (T-47D breast) was > 100 µM. For the same compound, the TGI (NCI-H522 lung) was > 100 µM and the TGI (A549 NSCLC) was > 100 µM.

In the case of `Cn1c(=O)c(-c2ccccc2)c(N=[N+]=[N-])c2ccccc21`, the TGI (NCI-H226 lung) is reported as > 100 µM, the TGI (NCI-H23 lung) is reported as > 100 µM and the TGI (K-562 leukemia) is reported as > 100 µM. The TGI (SK-MEL-28 melanoma) was > 100 µM, the TGI (SK-OV-3 ovarian) was > 100 µM and the TGI (SR leukemia) was 75.4 µM. The TGI (UACC-62 melanoma) was > 100 µM, the TGI (DU-145 prostate) was > 100 µM and the TGI (SF-539 CNS) was > 100 µM. For the same compound, the TGI (SK-MEL-5 melanoma) was > 100 µM, the TGI (MCF7 breast) was > 100 µM and the TGI (MALME-3M melanoma) was 87.8 µM. The TGI (OVCAR-5 ovarian) was > 100 µM, the TGI (SNB-75 CNS) was > 100 µM and the TGI (SF-295 CNS) was > 100 µM. For the same compound, the TGI (CAKI-1 renal) was > 100 µM, the TGI (MDA-MB-231 breast) was > 100 µM and the TGI (SF-268 CNS) was > 100 µM. For the same compound, the TGI (UO-31 renal) was > 100 µM, the TGI (CCRF-CEM leukemia) was > 100 µM and the TGI (OVCAR-4 ovarian) was > 100 µM. For the same compound, the TGI (HOP-92 NSCLC) was > 100 µM, the TGI (MDA-MB-435) was > 100 µM and the TGI (KM12 colon) was > 100 µM. The TGI (ACHN renal) was 96.3 µM, the TGI (SNB-19 CNS) was > 100 µM and the TGI (HS 578T breast) was > 100 µM. The TGI (COLO 205 colon) was > 100 µM, the TGI (NCI/ADR-RES ovarian) was > 100 µM and the TGI (M14 melanoma) was > 100 µM. For the same compound, the TGI (SN12C renal) was > 100 µM, the TGI (PC-3 prostate) was > 100 µM and the TGI (A498 renal) was > 100 µM. The TGI (UACC-257 melanoma) was > 100 µM, the TGI (TK-10 renal) was > 100 µM and the TGI (HCC-2998 colon) was 47 µM. The TGI (OVCAR-3 ovarian) was > 100 µM, the TGI (HT29 colon) was 49.9 µM and the TGI (HOP-62 NSCLC) was > 100 µM. The TGI (RXF 393 renal) was > 100 µM, the TGI (HCT-15 colon) was > 100 µM and the TGI (MOLT-4 leukemia) was 85.4 µM. The TGI (U251 CNS) was > 100 µM, the TGI (NCI-H460 lung) was > 100 µM and the TGI (IGROV1 ovarian) was > 100 µM. The TGI (SW-620 colon) was > 100 µM, the TGI (BT-549 breast) was > 100 µM and the TGI (MDA-N) was > 100 µM. For the same compound, the TGI (HCT-116 colon) was > 100 µM, the TGI (OVCAR-8 ovarian) was > 100 µM and the TGI (T-47D breast) was > 100 µM. The TGI (NCI-H522 lung) was 75.5 µM and the TGI (A549 NSCLC) was > 100 µM.

In the case of `NC(=O)C(C(N)=O)=C(O)C(=O)/C=C(\O)c1ccccc1`, the TGI (NCI-H226 lung) is reported as > 100 µM, the TGI (NCI-H23 lung) is reported as > 100 µM and the TGI (786-0 renal) is reported as > 100 µM. For the same compound, the TGI (K-562 leukemia) was 29.9 µM, the TGI (SK-MEL-28 melanoma) was > 100 µM and the TGI (SK-OV-3 ovarian) was > 100 µM. For the same compound, the TGI (SR leukemia) was 13.9 µM, the TGI (UACC-62 melanoma) was > 100 µM and the TGI (DU-145 prostate) was > 100 µM. The TGI (SF-539 CNS) was > 100 µM, the TGI (RPMI-8226 leukemia) was 31.7 µM and the TGI (SK-MEL-5 melanoma) was > 100 µM. For the same compound, the TGI (SK-MEL-2 melanoma) was > 100 µM, the TGI (MCF7 breast) was > 100 µM and the TGI (MALME-3M melanoma) was > 100 µM. For the same compound, the TGI (OVCAR-5 ovarian) was > 100 µM, the TGI (SNB-75 CNS) was > 100 µM and the TGI (SF-295 CNS) was > 100 µM. For the same compound, the TGI (CAKI-1 renal) was > 100 µM, the TGI (MDA-MB-231 breast) was > 100 µM and the TGI (SF-268 CNS) was > 100 µM. The TGI (UO-31 renal) was > 100 µM, the TGI (CCRF-CEM leukemia) was 52.5 µM and the TGI (HL-60(TB) leukemia) was 58.8 µM. The TGI (OVCAR-4 ovarian) was > 100 µM, the TGI (HOP-92 NSCLC) was > 100 µM and the TGI (MDA-MB-435) was > 100 µM. For the same compound, the TGI (KM12 colon) was > 100 µM, the TGI (ACHN renal) was > 100 µM and the TGI (SNB-19 CNS) was > 100 µM. For the same compound, the TGI (HS 578T breast) was > 100 µM, the TGI (COLO 205 colon) was > 100 µM and the TGI (NCI/ADR-RES ovarian) was > 100 µM. For the same compound, the TGI (M14 melanoma) was > 100 µM, the TGI (SN12C renal) was > 100 µM and the TGI (LOX IMVI melanoma) was > 100 µM. The TGI (PC-3 prostate) was > 100 µM, the TGI (A498 renal) was > 100 µM and the TGI (EKVX NSCLC) was > 100 µM. For the same compound, the TGI (UACC-257 melanoma) was > 100 µM, the TGI (TK-10 renal) was > 100 µM and the TGI (HCC-2998 colon) was > 100 µM. The TGI (OVCAR-3 ovarian) was > 100 µM, the TGI (HT29 colon) was > 100 µM and the TGI (HOP-62 NSCLC) was > 100 µM. The TGI (RXF 393 renal) was > 100 µM, the TGI (HCT-15 colon) was > 100 µM and the TGI (U251 CNS) was > 100 µM. The TGI (NCI-H460 lung) was > 100 µM, the TGI (IGROV1 ovarian) was > 100 µM and the TGI (SW-620 colon) was > 100 µM. The TGI (BT-549 breast) was > 100 µM, the TGI (MDA-N) was > 100 µM and the TGI (HCT-116 colon) was > 100 µM. The TGI (OVCAR-8 ovarian) was > 100 µM, the TGI (T-47D breast) was > 100 µM and the TGI (NCI-H522 lung) was 36.2 µM. For the same compound, the TGI (A549 NSCLC) was > 100 µM.
